Laboratory results as given in PubChem BioAssay AID1996.
Values after ≈ are worked out from the molar mass of the structure shown.

Conditions: buffer; pH 7.4; 200.0 µM

Compound | solubility kinetic [µg/mL]
O=C(Nc1cccc(NC(=O)c2ccco2)c1)c1ccccc1 | 45.9 (≈ 150 µM)
O=C(CN1CCc2ccccc2C1)Nc1ccccc1Cl | 8.7 (≈ 28.9 µM)
CCCCOc1ccc(C(=O)Oc2cccnc2)cc1 | 1.5 (≈ 5.53 µM)
Cc1ccc(NC(=O)CNC(=O)c2cccs2)c(O)c1 | 21.7 (≈ 74.7 µM)
CC(=O)Nc1c(C(N)=O)oc2ccc(Cl)cc12 | > 37.9
O=C(O)Cn1cnc2scc(-c3ccccc3)c2c1=O | > 42.9
O=C(COC(=O)c1cc(=O)[nH]c(=O)[nH]1)Nc1cccc(Cl)c1 | > 48.6
COc1ccc2nc(SCC(=O)NCC3CCCO3)c(C#N)cc2c1 (stereo not given) | 5.2 (≈ 14.5 µM)
CSc1ccccc1C(=O)Nc1ccccc1C(=O)NC(C)C | > 49.3
COc1ccc(S(=O)(=O)N2CCOCC2)cc1NC(=O)CN1C(=O)CN(C)C1=O | > 64
CC1(C)CC(NC(=O)c2ccccc2F)CC(C)(C)N1 | > 41.8
CCc1cccc(C)c1NC(=O)N(C)C1CCCCC1 | 35.6 (≈ 130 µM)
N/C(=N\OC(=O)CSc1ccccc1)c1ccncc1 | 37.6 (≈ 131 µM)
Cc1ccc(S(=O)(=O)N2CCN(C(=O)COC(=O)/C=C/c3ccc([N+](=O)[O-])cc3)CC2)c(C)c1 | 1.9 (≈ 3.9 µM)
CCOc1ccc(NC(=O)CCNC(=O)c2ccco2)cc1 | > 45.3
Cc1ccc(N(Cc2ccccc2)C(=O)c2cccc(F)c2)cc1 | 11.1 (≈ 34.8 µM)
O=C(CN1C(=O)c2ccccc2C1=O)NC1CCCCC1 | 33.4 (≈ 117 µM)
COC(=O)c1c(S(=O)(=O)N2CCOCC2)c(C)n(C)c1C | > 47.5
CC1CCCCC1NC(=O)COc1ccc(C#N)cc1 (stereo not given) | > 40.9
O=C(CNC(=O)c1ccc2ccccc2c1)NCc1ccc(F)cc1 | 1.9 (≈ 5.65 µM)
Cc1cccc(NC(=O)c2ccc(N3C(=O)C4CCCCC4C3=O)cc2)c1C (stereo not given) | 20.6 (≈ 54.7 µM)
Cn1c(C2CCCCC2)nc2c1c(=O)[nH]c(=O)n2Cc1ccccc1 | 16.7 (≈ 49.3 µM)
O=C(Nc1ccccc1F)OC1CN2CCC1CC2 (stereo not given) | > 39.6
O=C(OCCN1CCN(C2=NS(=O)(=O)c3ccccc32)CC1)c1ccccc1F | 57.3 (≈ 137 µM)

Compound | solubility kinetic [µg/mL]
CCC1CN(C(=O)NCc2ccc(C)cc2)c2cc(Cl)ccc2O1 (stereo not given) | < 0.4
CC1CCCC(NC(=O)COC(=O)c2ccc(Br)o2)C1C (stereo not given) | 8.2 (≈ 22.9 µM)
O=C(NCc1ccco1)NC(=O)c1csc([N+](=O)[O-])c1 | 0.6 (≈ 2.03 µM)
C/C(=C\C(=O)c1cccnc1)Nc1ccc(C(=O)O)cc1 | 31.3 (≈ 111 µM)
COCCNS(=O)(=O)c1cc(OC)c(C)cc1C | > 41
O=c1[nH]c(S)c(/C=C2\C=Nc3ccccc32)s1 | 9.6 (≈ 36.9 µM)
Cc1ccc(C(=O)Nc2ccc(Nc3ccccc3)cc2)cc1C | 2.3 (≈ 7.27 µM)
CSc1ccccc1C(=O)NC(C)c1ccc(-n2ccnc2)cc1 (stereo not given) | > 50.6
CC(NC(=O)COC(=O)Cn1cc(C(F)(F)F)ccc1=O)c1ccccc1 (stereo not given) | > 57.3
O=C(/C=C/Nc1ccc(S(=O)(=O)Nc2ncccn2)cc1)c1ccc2ccccc2c1 | 2 (≈ 4.65 µM)
O=[N+]([O-])c1ccc(CSc2ccc(S(=O)(=O)N3CCCCC3)cn2)cc1 | 2.4 (≈ 6.1 µM)
CC1CCCC(C)N1C(=O)COC(=O)c1cccs1 (stereo not given) | > 42.2
COc1ccc([N+](=O)[O-])cc1NC(=O)C(C)OC(=O)C1CCCC1 (stereo not given) | 12 (≈ 35.7 µM)
CSc1ccccc1C(=O)Nc1cccc([N+](=O)[O-])c1C | 7.5 (≈ 24.8 µM)
CC(=O)Nc1ccc2c(c1)N(C(C)=O)c1ccccc1CC2 | > 44.2
CC1(C)CC(=O)C=C(NNC(=O)c2cccnc2)C1 | > 38.9
COc1cc([N+](=O)[O-])ccc1N1C(=O)CC(Sc2nccc(C)n2)C1=O (stereo not given) | > 56.2
CCCN1CCN(CCNC(=O)Nc2cc(C)ccc2C)CC1 | > 47.8
O=C(c1ccc([N+](=O)[O-])o1)N1CCN(Cc2ccccc2)CC1 | 9.2 (≈ 29.2 µM)
CCOC(=O)CSc1nc(-c2ccccc2)nc2ccc(C)cc12 | < 0.4
CNc1nc(=S)[nH]c2ccccc12 | > 28.7
Cc1ccc(C(=O)O)cc1NS(=O)(=O)c1ccc2c(c1)oc(=O)n2C | 44.8 (≈ 124 µM)
O=C(NCc1csc(-c2cccs2)n1)Nc1cccc(Cl)c1 | 0.3 (≈ 0.857 µM)
CN[C@H]1CC[C@@H](c2ccc(Cl)c(Cl)c2)c2ccccc21 | > 45.9

Compound | solubility kinetic [µg/mL]
COc1cc2c(cc1OC)C(c1ccccc1N)=NCC2 | > 42.4
CCOC(=O)c1cc(CC)sc1NC(=O)COC(=O)C1CCC1 | < 0.7
Cc1ccc(SCC(=O)N2CCC(C(N)=O)CC2)cc1 | > 43.9
CCn1c(SCc2ccccc2)nc2ccccc2c1=O | 1.3 (≈ 4.39 µM)
Cc1ccc(S(=O)(=O)NCCc2c[nH]c3ccccc23)cc1 | 37.7 (≈ 120 µM)
Cc1cc(C)cc(NC(=O)c2sc3nc(C)cc(C)c3c2N)c1 | 0.3 (≈ 0.922 µM)
CSc1ccccc1Nc1ncnc(N)n1 | 25.8 (≈ 111 µM)
O=C(c1ccccc1)N1CCSc2sccc2C1=O | 37.5 (≈ 130 µM)
Cn1ccnc1C(OC(=O)c1ccccc1)C(F)(F)F (stereo not given) | > 42.6
ONC(=Nc1ccccc1Cl)c1c(F)cccc1F | 19 (≈ 67.2 µM)
COc1ccccc1C(=O)NC1CC(C)(C)NC(C)(C)C1 | > 43.6
O=C(c1cc(-c2ccc3c(c2)OCO3)on1)N1CCCCC1 | 5.7 (≈ 19 µM)
O=C1S/C(=C\c2cccs2)C(=O)N1c1ccc(O)cc1 | < 0.6
COc1ccc(CSCC(=O)Nc2ccccc2)cc1[N+](=O)[O-] | > 49.9
CN1CCN2c3ccccc3CC3(C(=O)N(C)C(=O)N(C)C3=O)C2C1 (stereo not given) | > 51.4
O=C(Nc1ccc2c(c1)OCCO2)c1ccc(Cl)cc1 | 2.1 (≈ 7.25 µM)
O=C(O)c1ccc2c(=O)n(-c3ccc(F)cc3)c(=S)[nH]c2c1 | > 47.4
CC(=O)c1ccccc1NC(=O)CC1(CC(=O)O)CCCCC1 | > 47.6
O=S(=O)(Nc1ccc(OC(F)(F)F)cc1)c1cccc2nonc12 | 46.1 (≈ 128 µM)
COC(=O)c1ccc(COC(=O)CNC(=O)c2ccc(OC)cc2)cc1 | 17.3 (≈ 48.4 µM)
COc1ccc(C(=O)N2CCCc3ccccc32)cc1Br | 26.4 (≈ 76.3 µM)
COc1ccc2nc(SC)c(C#N)cc2c1 | < 0.2
O=C(c1ccc([N+](=O)[O-])cc1Cl)N1CCN(c2ccccn2)CC1 | > 52
O=[N+]([O-])c1ccc(O)c(CN2CCCCCC2)c1 | > 37.5

Compound | solubility kinetic [µg/mL]
CC(OC(=O)C1CCC1)C(=O)Nc1cc(Cl)cc(Cl)c1 (stereo not given) | 2.4 (≈ 7.59 µM)
O=C(NCCCCc1ccccc1)C1CCCC1 | 33.1 (≈ 135 µM)
Cn1cccc1C(=O)OCC(=O)N1CC(=O)Nc2ccccc21 | 45.1 (≈ 144 µM)
CC(=O)Nc1ccc(NC(=O)c2cc(-n3cnnc3)ccc2Cl)cc1 | > 53.4
CCOC(=O)C1=C(N)c2ccccc2CC1C1CCCC1 (stereo not given) | 0.8 (≈ 2.8 µM)
Cc1nc(CSc2n[nH]c(=O)n2-c2cccc(F)c2)cs1 | > 48.4
O=C(Nc1cccc(Cl)c1)c1cnc[nH]1 | > 33.2
COC(=O)c1ccc(C)c(NC(=O)CCCN2C(=O)CN(C)C2=O)c1 | > 52.1
O=C(NCc1ccccc1)N1CCC(Cc2ccccc2)CC1 | < 0.3
O=C(NCCNC(=O)c1ccccc1O)c1ccccc1O | 32.3 (≈ 108 µM)
O=C(CNC(=O)c1ccco1)NCC(=O)OCc1ccccc1Cl | 42.5 (≈ 121 µM)
CC1=NN(c2ccccc2)C(=O)C1/C=C1\NC(=S)NC1=O (stereo not given) | > 45.1
Cc1ccccc1N1C(=O)Cc2ccccc2C1=O | 35.4 (≈ 141 µM)
Cc1nn(CC(=O)NC2CC2)c(C)c1S(=O)(=O)NC(C)(C)C | > 49.3
O=C(OCC(=O)N1CCc2ccccc21)c1ccccn1 | > 42.3
O=C1CSC(c2ccc([N+](=O)[O-])cc2)N1c1ccc(O)cc1 (stereo not given) | 46.4 (≈ 147 µM)
NC(=O)C1CCCN1 (stereo not given) | > 17.1
COc1cccc(OCC(O)CNC2CCCC2)c1.Cl (stereo not given) | > 45.3
CCc1ccc(OCC2NCCc3cc(OC)c(OC)cc32)cc1 (stereo not given) | > 49.1
CCOc1ccc(-c2nc(N)ncc2Oc2ccc(OC)cc2)c(O)c1 | 1 (≈ 2.83 µM)
O=c1[nH]c2ccc(NC(=S)Nc3ccc(F)cc3)cc2[nH]1 | > 45.3
O=C(CN1C(=O)C(=O)N(CCC2=CCCCC2)C1=O)c1c[nH]c2ccccc12 | 3.2 (≈ 8.43 µM)
CN(C)c1ccc(NC(=S)c2ccc3ccccc3n2)cc1 | < 0.2
COc1ccccc1Cc1nc(-c2ccncc2)no1 | 33.4 (≈ 125 µM)

Compound | solubility kinetic [µg/mL]
CCOC(=O)N1CCN(C(=O)c2cc3cc(Cl)ccc3[nH]2)CC1 | 7 (≈ 20.8 µM)
NS(=O)(=O)c1ccc(NC(=O)CCCC(=O)O)cc1 | > 42.9
COCCNC(=O)C(NC(=O)C1CCCCC1)C(C)C (stereo not given) | > 42.7
Cc1ccc(C)c(NC(=S)NCCCN2CCOCC2)c1 | > 46.1
CCN(Cc1nc(-c2ccc(C)cc2)no1)C(=O)c1ccco1 | 38.9 (≈ 125 µM)
N#C/C(=C\c1cccs1)C(=O)N1CCOCC1 | 35.5 (≈ 143 µM)
CCCc1c(C)nc(N2CCN(c3ccccc3OC)CC2)[nH]c1=O | 2.5 (≈ 7.3 µM)
Cc1ccc(NC(=O)Cn2c(=O)oc3ccccc32)cc1Cl | 0.9 (≈ 2.84 µM)
Cc1cc2nc(=O)c(/C=C3\C=Nc4ccccc43)c(N)n2o1 | < 0.2
COCC(=O)N1CCN(c2cccc(Cl)c2)CC1 | > 40.3
C/C(CC(=O)Nc1ccccn1)=N\NC(=O)c1cnccn1 | > 44.7
CCCCC(=O)Nc1ccccc1N1CCN(c2ccccc2)CC1 | 8.1 (≈ 24 µM)
CN(C)CCC=C1c2ccccc2CCc2ccccc21.Cl | > 47.1
CNC(=O)c1cc(C(=O)c2ccc(C(F)(F)F)cc2)c[nH]1 | 1.8 (≈ 6.08 µM)
S=C(NC1CC1)SCc1ccco1 | 10.3 (≈ 48.3 µM)
Cn1c(SCC(=O)N2CCCC2=O)nc2ccccc2c1=O | 13.2 (≈ 41.6 µM)
O=c1ccn(CCc2c[nH]c3ccccc23)c2c1CCCC2 | > 43.9
CC(C)OC(=O)c1ccc(COC(=O)CNC(=O)c2ccco2)cc1 | 34.8 (≈ 101 µM)
Oc1ccc(Br)cc1CNc1cnc2ccccc2c1 | 1 (≈ 3.04 µM)
CCOC(=O)c1cnc2c(ccc3ccccc32)c1N | < 0.3
COc1ccc(C(C)(C)C)cc1NC(=O)CCNC(=O)c1ccco1 | > 51.7
CC1SCC(=NOCc2ccccc2)CS1 (stereo not given) | 11.5 (≈ 45.4 µM)
O=C(COC(=O)c1cccc(O)c1)NC(=O)Cc1ccccc1 | > 47
Cc1ccc(NC(=O)Cn2c([N+](=O)[O-])cnc2C)cc1Cl | 1.6 (≈ 5.18 µM)
